Results reported in patent US7691900B2, “Tocopherol derivatives with a long hydroxylated chain, which can be used as neurotrophics” (AxoGlia Therapeutics S.A., priority 2003, dated 2010).

System: microglial cells activated by LPS
Test: Release of TNF-α (ELISA) in LPS-activated microglial cell cultures
Type: cell-based
Conditions: microglia treated with 0.01 μg/ml LPS; 24 h activation; tested at 10^-5, 10^-6, 10^-7 M
Protocol: 2. Measurement of the Release of TNF-α
The expression of the TNF-a represents a parameter for microglial activation often analyzed in the literature. […] A 24 hrs activation by LPS leads to a high increase in the level of TNF-α expression detectable by the ELISA test.
In the experiments, the concentrations of TNF-α in the microglial cell cultures, treated with 0.01 μg/ml of LPS in the presence of TFA-10, TFA-12, TFA-14, TFA-16 and vitamin E, at concentrations of 10^−5, 10^−6 and 10^−7 M, were measured by the inventors after 24 hours activation.

Substance: vitamin E
- activity on TNF-α production, in words: no activity
